*1 amine or outer side, *2 acyl side, *3 side chain or, on linkers, in order; H or OH if unused. Where a SMILES comes first, the peptide text is derived from it. Bridges are numbered along the chain shown (N, C = ends). [ ]: non-standard residue; d: D form. The star is where a group is joined. ξ: configuration not given here. Phe(3-CONHMe,4-OMe) = CNC(=O)c1cc(C[C@H](N)C(=O)O)ccc1OC; Phe(3-OMe,4-CONHMe) = CNC(=O)c1ccc(C[C@H](N)C(=O)O)cc1OC; NMePhe(3-Cl) = CN[C@@H](Cc1cccc(Cl)c1)C(=O)O; NMeW = CN[C@@H](Cc1c[nH]c2ccccc12)C(=O)O; NMeF = CN[C@@H](Cc1ccccc1)C(=O)O; NMeGABA = CN(CCCC(=O)[*:2])[*:1]; NMeI = CC[C@H](C)[C@H](NC)C(=O)O; NMeξIle = CC[C@H](C)C(NC)C(=O)O; Butyl(3-Me,3-OH) = CC(C)(O)CC*; CH2CH(OH)CF3 = OC(C*)C(F)(F)F; NMeL = CN[C@@H](CC(C)C)C(=O)O; NMeV = CN[C@H](C(=O)O)C(C)C; NMeA = CN[C@@H](C)C(=O)O; Piperidide = C1CCN(*)CC1; NBuGly = CCCCNCC(=O)O; Isopentyl = CC(C)CC*; Sar = CNCC(=O)O; tBu = CC(C)(C)*
Test: in vitro
Details: human, Caco-2, Caco-2 (cm/sec)

| SMILES | Papp [×10⁻⁶ cm/s] |
| --- | --- |
| CCCCN1CC(=O)N(C)[C@@H](CC(C)C)C(=O)N[C@@H](Cc2ccc(C(=O)NC)c(OC)c2)C(=O)N(C)[C@@H](CC(C)C)C(=O)N(C)[C@@H](CC(C)C)C(=O)N[C@H](C(=O)N2CCCCC2)CC(=O)N[C@H](CC(C)C)C(=O)N(C)[C@@H](Cc2ccccc2)C(=O)N[C@@H](C(C)C)C(=O)N(C)[C@@H](CC(C)C)C(=O)N[C@@H]([C@@H](C)O)C1=O [AP28] ([dL][NMeF]V[NMeL]T[NBuGly][NMeL][Phe(3-OMe,4-CONHMe)][NMeL][NMeL]D-Piperidide; lactam N-11) | 0.38 |
| CC[C@H](C)C1C(=O)N[C@@H]([C@@H](C)O)C(=O)N(C)CC(=O)N(C)[C@@H](CC(C)C)C(=O)N[C@H](C(=O)N2CCCCC2)CC(=O)N(C)[C@@H](C)C(=O)N[C@@H](CC(C)C)C(=O)N(C)[C@@H](CC(C)C)C(=O)N(C)[C@@H](Cc2c[nH]c3ccccc23)C(=O)N[C@@H](C(C)C)C(=O)N(C)[C@@H](CC(C)C)C(=O)N1C (stereo partly drawn) [pd102] ([NMeA]L[NMeL][NMeW]V[NMeL][NMeξIle]T[Sar][NMeL]D-Piperidide; lactam N-11) | 1.1 |
| CCCCN1CC(=O)N(C)[C@@H](CC(C)C)C(=O)N(C)[C@@H](CC(C)C)C(=O)N[C@@H](COC(C)(C)C)C(=O)N(C)[C@@H](CC(C)C)C(=O)N[C@H](C(=O)N2CCCCC2)CC(=O)N(C)CC(=O)N(C)[C@@H](Cc2cccc(Cl)c2)C(=O)N[C@@H](Cc2ccc(OC)c(C(=O)NC)c2)C(=O)N(C)[C@@H](CC(C)C)C(=O)N[C@@H]([C@@H](C)O)C1=O [AP41] ([Sar][NMePhe(3-Cl)][Phe(3-CONHMe,4-OMe)][NMeL]T[NBuGly][NMeL][NMeL]S(tBu)[NMeL]D-Piperidide; lactam N-11) | 0.45 |
| CC(C)C[C@@H]1NC(=O)[C@H](Cc2ccccc2)N(C)C(=O)[C@@H](C(C)C)NC(=O)C[C@@H](C(=O)N2CCCCC2)NC(=O)[C@H](C)N(C)C(=O)[C@H](CC(C)C)N(C)C(=O)[C@H](COC(C)(C)C)NC(=O)[C@H](CC(C)C)N(C)C(=O)CN(C)C(=O)[C@H](Cc2ccc(O)cc2)NC(=O)[C@H](CC(C)C)N(C)C1=O [pd127] ([dV][NMeF]L[NMeL]Y[Sar][NMeL]S(tBu)[NMeL][NMeA]D-Piperidide; lactam N-11) | 0.13 |
| CC(C)CCOC[C@@H]1NC(=O)[C@H](Cc2ccccc2)N(C)C(=O)[C@H](Cc2ccccc2)N(C)C(=O)[C@H](COCCC(C)(C)O)NC(=O)[C@H](CC(C)C)N(C)C(=O)CCCN(C)C(=O)C[C@@H](C(=O)N2CCCCC2)NC(=O)[C@H](CC(C)C)N(C)C(=O)[C@H](CC(C)C)N(C)C(=O)[C@H]([C@@H](C)O)NC(=O)[C@H](C(C)C)N(C)C1=O [AP53] ([NMeGABA][NMeL]S(Butyl(3-Me,3-OH))[NMeF][NMeF]S(Isopentyl)[NMeV]T[NMeL][NMeL]D-Piperidide; lactam N-11) | 0.74 |

Same assay, conditions: human, Caco-2, Caco-2 (cm/sec) Papp

| SMILES | Papp [×10⁻⁶ cm/s] |
| --- | --- |
| CC(C)C[C@@H]1NC(=O)[C@H]([C@@H](C)O)NC(=O)[C@H](CC(C)C)N(C)C(=O)C[C@@H](C(=O)N2CCCCC2)NC(=O)[C@H](COC(C)(C)C)NC(=O)[C@H](Cc2ccccc2)NC(=O)[C@H](C)N(C)C(=O)[C@H](Cc2ccccc2)NC(=O)CN(C)C(=O)[C@H](Cc2ccccc2)N(C)C(=O)[C@H](Cc2ccccc2)N(C)C1=O [pd245] ([NMeL]TL[NMeF][NMeF][Sar]F[NMeA]FS(tBu)D-Piperidide; lactam N-11) | 0.019 |

Same assay, conditions: human, Caco-2, Caco-2 (membrane permeability)

| SMILES | Papp [×10⁻⁶ cm/s] |
| --- | --- |
| CCCCN1CC(=O)N(C)[C@@H](Cc2ccccc2)C(=O)N(C)[C@@H](CC(C)C)C(=O)N[C@@H](COC(C)(C)C)C(=O)N(C)[C@@H](CC(C)C)C(=O)N[C@H](C(=O)N2CCCCC2)CC(=O)N(C)CC(=O)N(C)[C@@H](Cc2cccc(Cl)c2)C(=O)N[C@@H](COCC(O)C(F)(F)F)C(=O)N(C)[C@@H](CC(C)C)C(=O)N[C@@H]([C@@H](C)O)C1=O (stereo partly drawn) [Compound C06] ([Sar][NMePhe(3-Cl)]S(CH2CH(OH)CF3)[NMeL]T[NBuGly][NMeF][NMeL]S(tBu)[NMeL]D-Piperidide; lactam N-11) | 0.48 |
| CC(C)C[C@H]1C(=O)N[C@@H](C(C)C)C(=O)N(C)[C@@H](Cc2ccccc2)C(=O)N(C)[C@@H](Cc2ccccc2)C(=O)N[C@@H](COC(C)(C)C)C(=O)N(C)[C@@H](CC(C)C)C(=O)N[C@@H](COCC(O)C(F)(F)F)C(=O)N(C)[C@@H](CC(C)C)C(=O)N(C)[C@@H](CC(C)C)C(=O)N[C@H](C(=O)N2CCCCC2)CC(=O)N(C)CCCC(=O)N1C (stereo partly drawn) [Compound C12] ([NMeGABA][NMeL]V[NMeF][NMeF]S(tBu)[NMeL]S(CH2CH(OH)CF3)[NMeL][NMeL]D-Piperidide; lactam N-11) | 0.23 |
| CCCCN1CC(=O)N(C)[C@@H](CC(C)C)C(=O)N[C@@H](CC(C)C)C(=O)N(C)[C@@H](Cc2ccccc2)C(=O)N(C)[C@@H]([C@@H](C)CC)C(=O)N[C@H](C(=O)N2CCCCC2)CC(=O)N[C@H](CC(C)C)C(=O)N(C)[C@@H](Cc2ccccc2)C(=O)N[C@@H](CCC(=O)NC)C(=O)N(C)[C@@H](CC(C)C)C(=O)N[C@@H]([C@@H](C)O)C1=O [Compound J01] ([dL][NMeF]E(NHMe)[NMeL]T[NBuGly][NMeL]L[NMeF][NMeI]D-Piperidide; lactam N-11) | 0.062 |

— patent US20230096766A1, “AMINO ACID HAVING FUNCTIONAL GROUP CAPABLE OF INTERMOLECULAR HYDROGEN BONDING, PEPTIDE COMPOUND CONTAINING SAME AND METHOD FOR PRODUCTION THEREOF” (Chugai Seiyaku Kabushiki Kaisha, priority 2018, published 2023)
